Experiments:
[1] = test system: TRZAWR (Wheat, Winter, cv Riband); experiment: Preemergence herbicidal evaluation; assay type: in vivo, Triticum aestivum; conditions: rated 4-5 weeks after treatment
In short: (§1)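 Seeds mixed with potting soil were planted atop about one inch of soil, then sprayed with test compound in aqueous acetone. Cups were kept in the greenhouse and rated visually 4–5 weeks after treatment on a 0–9 scale against untreated control.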

ORYSAT (Rice, Tebonnet) = experiment: Preemergence herbicidal evaluation; assay type: in vivo, Oryza sativa, (L.) Tebonnet; conditions: rated 4-5 weeks after treatment
[2] = test system: CASOB (Cassia obtusifolia); experiment: Postemergence herbicidal evaluation; assay type: in vivo, L.; conditions: for CASOB herbicidal rating: postemergence
In short: (§2)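 Seedlings grown for about two weeks were sprayed postemergence and then kept under standard greenhouse care. Injury was rated visually 4–5 weeks after treatment on a 0–9 scale against untreated controls, and ratings from repeat tests were averaged.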

[3] = test system: AMBEL (Ambrosia artemisifolia); experiment: Postemergence herbicidal evaluation; assay type: in vivo, L.; conditions: for AMBEL herbicidal rating: postemergence
In short: as §2

[4] = test system: CHEAL (Chenopodium album); experiment: Postemergence herbicidal evaluation; assay type: in vivo, L.; conditions: for CHEAL herbicidal rating: postemergence
In short: as §2

[5] = test system: ECHCG (Echinochloa crus-galli); experiment: Postemergence herbicidal evaluation; assay type: in vivo, (L.) Beau; conditions: for ECHCG herbicidal rating: postemergence
In short: as §2

[6] = test system: SAGPY (Sagittaria pygmaea); experiment: Flooded paddy, preemergence weed control; assay type: in vivo, L.; conditions: rated 3-4 weeks after treatment, 0-9 rating scale
In short: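 Preemergence, flooded: propagules planted at 0.5 cm depth in silt loam, water level maintained at 1.5 to 3 cm over soil, containers kept on greenhouse benches. Activity scored 0-9 by eye relative to a control plant.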

[7] = test system: CASOB (Cassia obtusifolia); experiment: Preemergence herbicidal evaluation; assay type: in vivo, L.; conditions: rated 4-5 weeks after treatment
In short: as §1

[8] = test system: AMBEL (Ambrosia artemisifolia); experiment: Preemergence herbicidal evaluation; assay type: in vivo, L.; conditions: rated 4-5 weeks after treatment
In short: as §1

[9] = test system: CHEAL (Chenopodium album); experiment: Preemergence herbicidal evaluation; assay type: in vivo, L.; conditions: rated 4-5 weeks after treatment
In short: as §1

Which results are given for `Cn1c(C(F)(F)F)cc(=O)n(-c2ccc3snc(C4OCCCS4)c3c2)c1=O` (stereo not drawn) [Compound 34, 1-methyl-3-[3-(1,3-oxathian-2-yl)-1,2-benzisothiazol-5-yl]-6-(trifluoromethyl)uracil]?
Preemergence herbicidal rating TRZAWR ([1]; Rate 0.0620 kg/ha): 5.0; TRZAWR preemergence herbicidal rating ([1]; Rate 0.1250 kg/ha): 7.0; Preemergence herbicidal rating TRZAWR ([1]; Rate 0.1250 kg/ha): 5.0; TRZAWR preemergence herbicidal rating ([1]; Rate 0.2500 kg/ha): 8.0; Preemergence herbicidal rating TRZAWR ([1]; Rate 0.2500 kg/ha): 7.0; ORYSAT preemergence herbicidal rating (ORYSAT (Rice, Tebonnet); Rate 0.0620 kg/ha): 5.5; Preemergence herbicidal rating ORYSAT (ORYSAT (Rice, Tebonnet); Rate 0.0620 kg/ha): 3.0; ORYSAT preemergence herbicidal rating (ORYSAT (Rice, Tebonnet); Rate 0.1250 kg/ha): 8.0; Preemergence herbicidal rating ORYSAT (ORYSAT (Rice, Tebonnet); Rate 0.1250 kg/ha): 4.5; ORYSAT preemergence herbicidal rating (ORYSAT (Rice, Tebonnet); Rate 0.2500 kg/ha): 9.0; Preemergence herbicidal rating ORYSAT (ORYSAT (Rice, Tebonnet); Rate 0.2500 kg/ha): 5.5; CASOB herbicidal rating ([2]; rate 0.0320 kg/ha): 6.0; CASOB herbicidal rating ([2]; rate 0.0620 kg/ha): 6.0; Postemergence herbicidal rating, CASOB ([2]; rate 0.0320 kg/ha): 9.0; Postemergence herbicidal rating, CASOB ([2]; rate 0.0620 kg/ha): 9.0; AMBEL herbicidal rating ([3]; rate 0.0320 kg/ha): 7.0; AMBEL herbicidal rating ([3]; rate 0.0620 kg/ha): 9.0; Postemergence herbicidal rating, AMBEL ([3]; rate 0.0320 kg/ha): 9.0; Postemergence herbicidal rating, AMBEL ([3]; rate 0.0620 kg/ha): 9.0; CHEAL herbicidal rating ([4]; rate 0.0320 kg/ha): 7.0; CHEAL herbicidal rating ([4]; rate 0.0620 kg/ha): 9.0; Postemergence herbicidal rating, CHEAL ([4]; rate 0.0320 kg/ha): 7.0; Postemergence herbicidal rating, CHEAL ([4]; rate 0.0620 kg/ha): 9.0; ECHCG herbicidal rating ([5]; rate 0.0320 kg/ha): 3.0; ECHCG herbicidal rating ([5]; rate 0.0620 kg/ha): 4.0; Postemergence herbicidal rating, ECHCG ([5]; rate 0.0320 kg/ha): 4.0; Postemergence herbicidal rating, ECHCG ([5]; rate 0.0620 kg/ha): 6.0; herbicidal rating, SAGPY ([6]; rate 0.0080 kg/ha): 0.0; herbicidal rating, SAGPY ([6]; rate 0.0320 kg/ha): 4.7; herbicidal rating, SAGPY ([6]; rate 0.0620 kg/ha): 3.5; CASOB preemergence herbicidal rating ([7]; Rate 0.0620 kg/ha): 5.0; Preemergence herbicidal rating CASOB ([7]; Rate 0.0620 kg/ha): 2.5; CASOB preemergence herbicidal rating ([7]; Rate 0.1250 kg/ha): 9.0; Preemergence herbicidal rating CASOB ([7]; Rate 0.1250 kg/ha): 3.0; CASOB preemergence herbicidal rating ([7]; Rate 0.2500 kg/ha): 9.0; Preemergence herbicidal rating CASOB ([7]; Rate 0.2500 kg/ha): 4.5; AMBEL preemergence herbicidal rating ([8]; Rate 0.0620 kg/ha): 9.0; Preemergence herbicidal rating AMBEL ([8]; Rate 0.0620 kg/ha): 9.0; AMBEL preemergence herbicidal rating ([8]; Rate 0.1250 kg/ha): 9.0; Preemergence herbicidal rating AMBEL ([8]; Rate 0.1250 kg/ha): 9.0; AMBEL preemergence herbicidal rating ([8]; Rate 0.2500 kg/ha): 9.0; Preemergence herbicidal rating AMBEL ([8]; Rate 0.2500 kg/ha): 9.0; CHEAL preemergence herbicidal rating ([9]; Rate 0.0620 kg/ha): 9.0; Preemergence herbicidal rating CHEAL ([9]; Rate 0.0620 kg/ha): 9.0; CHEAL preemergence herbicidal rating ([9]; Rate 0.1250 kg/ha): 9.0; Preemergence herbicidal rating CHEAL ([9]; Rate 0.1250 kg/ha): 9.0; CHEAL preemergence herbicidal rating ([9]; Rate 0.2500 kg/ha): 9.0; Preemergence herbicidal rating CHEAL ([9]; Rate 0.2500 kg/ha): 9.0

Reference: patent US6706663B2, “Herbicidal 3-heterocyclic substituted benzisothiazole and benzisoxazole compounds” (Wyeth, priority 2000, dated 2004)
